Data: the supplement of paper PMC10307832

Assays:
Assay in all cases: relative viability (nuclei count vs DMSO), 5 days (fraction); higher = more cells survive
Palbociclib + Foretinib = compound: CC(=O)c1c(C)c2cnc(Nc3ccc(N4CCNCC4)cn3)nc2n(C2CCCC2)c1=O [Palbociclib] + COc1cc2c(Oc3ccc(NC(=O)C4(C(=O)Nc5ccc(F)cc5)CC4)cc3F)ccnc2cc1OCCCN1CCOCC1 [Foretinib] (partner 0.25 µM)
Summary of the method: (§1)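 For relative viability, nuclei counts in treated wells were divided by those in vehicle wells. Lung cancer cell lines had been pin-tool dosed in 1536-well plates the day after seeding and cultured for 5 days, then fixed and stained in one step (final 0.05% Triton X-100, 1% formaldehyde, 1 ug/ml Hoechst) and imaged at 4×. Doses were one drug alone or a fixed anchor-drug dose plus five library-drug doses (not always all listed) in √10 steps, and values are duplicate-plate medians.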

Palbociclib + Pemetrexed = compound: CC(=O)c1c(C)c2cnc(Nc3ccc(N4CCNCC4)cn3)nc2n(C2CCCC2)c1=O [Palbociclib] + Nc1nc2[nH]cc(CCc3ccc(C(=O)N[C@@H](CCC(=O)O)C(=O)O)cc3)c2c(=O)[nH]1 [Pemetrexed] (partner 0.2 µM)
Summary of the method: as §1

Palbociclib = compound: CC(=O)c1c(C)c2cnc(Nc3ccc(N4CCNCC4)cn3)nc2n(C2CCCC2)c1=O [Palbociclib]
Summary of the method: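 Cells of lung cancer lines were placed in 1536-well plates and kept overnight at 37 °C. Pinning then delivered five library-drug doses (not always all listed), spaced by √10, onto plates anchored with vehicle, and the cells were left 5 days without changing medium. One step fixed, permeabilised and stained them with Hoechst, and MetaXpress counted nuclei in 4× images. Viability, as a median over plates, is treated-well nuclei divided by vehicle-well nuclei, with acceptance only at control CV below 25% and at least one doubling.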

| Cell Line | relative viability (Palbociclib + Foretinib; first compound 0.01 µM) | relative viability (Palbociclib + Foretinib; first compound 0.1 µM) | relative viability (Palbociclib + Foretinib; first compound 0.3162 µM) | relative viability (Palbociclib + Foretinib; first compound 1 µM) | relative viability (Palbociclib + Pemetrexed; first compound 0.01 µM) | relative viability (Palbociclib + Pemetrexed; first compound 0.1 µM) | relative viability (Palbociclib + Pemetrexed; first compound 0.3162 µM) | relative viability (Palbociclib + Pemetrexed; first compound 1 µM) | relative viability (Palbociclib; 0.01 µM) | relative viability (Palbociclib; 0.1 µM) | relative viability (Palbociclib; 0.3162 µM) | relative viability (Palbociclib; 0.5 µM, anchor plate) | relative viability (Palbociclib; 1 µM) | relative viability (Palbociclib + Foretinib; first compound 0.03162 µM) | relative viability (Palbociclib + Pemetrexed; first compound 0.03162 µM) | relative viability (Palbociclib; 0.03162 µM) |
| --- | --- | --- | --- | --- | --- | --- | --- | --- | --- | --- | --- | --- | --- | --- | --- | --- |
| SW 900 | 0.902 | 0.844 | 0.649 | 0.625 | 0.46 | 0.528 | 0.51 | 0.422 | 1.01 | 0.768 | 0.565 | 0.565 | 0.541 |  |  |  |
| NCI-H1975 | 0.932 | 0.899 | 0.828 | 0.81 | 0.293 | 0.276 | 0.294 | 0.256 | 0.923 | 0.924 | 0.865 | 0.593 | 0.793 | 0.853 | 0.284 | 0.949 |
| NCI-H2126 | 1.28 | 0.904 | 0.78 | 0.603 | 0.725 | 0.509 | 0.51 | 0.345 | 0.996 | 0.792 | 0.694 | 0.353 | 0.464 | 0.93 | 0.581 | 0.649 |
| NCI-H661 | 1.01 | 0.695 | 0.626 | 0.495 | 0.878 | 0.645 | 0.571 | 0.416 | 0.968 | 0.765 | 0.611 | 0.415 | 0.455 | 0.792 | 0.792 | 0.862 |
| LXF-289 | 0.977 | 0.955 | 0.896 | 0.828 | 0.887 | 0.793 | 0.793 | 0.681 | 1.01 | 0.928 | 0.899 | 0.593 | 0.796 | 0.926 | 0.733 | 0.878 |
| NCI-H1395 | 0.867 | 0.846 | 0.828 | 0.713 | 0.797 | 0.786 | 0.838 | 0.65 | 1.01 | 0.797 | 0.858 | 0.647 | 0.597 | 0.876 | 0.812 | 0.825 |
| NCI-H358 | 0.718 | 0.523 | 0.412 | 0.226 | 0.167 | 0.166 | 0.186 | 0.135 | 0.986 | 0.718 | 0.543 | 0.138 | 0.277 | 0.545 | 0.163 | 0.675 |
| NCI-H1651 | 0.882 | 0.779 | 0.747 | 0.613 | 0.572 | 0.562 | 0.511 | 0.394 | 0.967 | 0.986 | 0.971 | 0.537 | 0.772 | 0.819 | 0.563 | 0.971 |
| NCI-H1993 | 0.815 | 0.671 | 0.627 | 0.52 | 0.681 | 0.482 | 0.512 | 0.54 | 1.05 | 0.726 | 0.69 | 0.658 | 0.67 | 0.633 | 0.649 | 0.882 |
| NCI-H1437 | 1.27 | 0.992 | 0.991 | 0.783 | 0.33 | 0.339 | 0.33 | 0.269 | 1.02 | 0.863 | 0.823 | 0.311 | 0.571 | 1.16 | 0.338 | 0.877 |
| NCI-H2023 | 0.929 | 0.556 | 0.474 | 0.322 | 0.203 | 0.169 | 0.174 | 0.142 | 0.913 | 0.694 | 0.625 | 0.392 | 0.4 | 0.523 | 0.188 | 0.773 |
| UMC-11 | 1.01 | 0.698 | 0.459 | 0.275 | 0.795 | 0.594 | 0.473 | 0.308 | 1 | 0.709 | 0.575 | 0.332 | 0.291 | 0.86 | 0.726 | 0.824 |
| LK-2 | 1.12 | 1.18 | 1.27 | 1.05 | 0.283 | 0.205 | 0.205 | 0.238 | 1 | 0.8 | 0.965 | 0.727 | 0.803 |  | 0.175 | 0.736 |
| HOP-62 | 0.881 | 1.02 | 0.958 | 0.735 | 0.281 | 0.306 | 0.252 | 0.269 | 0.953 | 0.87 | 0.795 | 0.451 | 0.663 |  |  |  |
| HCC-366 | 0.919 | 0.893 | 0.953 | 0.797 | 0.155 | 0.162 | 0.138 | 0.155 | 1 | 0.977 | 1 | 0.383 | 0.859 |  |  |  |
| LCLC-103H | 0.782 | 0.8 | 0.522 | 0.481 | 0.432 | 0.484 | 0.443 | 0.412 | 1 | 0.858 | 0.833 | 0.469 | 0.537 | 0.619 | 0.495 | 0.762 |
| NCI-H1666 | 0.998 | 0.875 | 0.7 | 0.553 | 0.802 | 0.798 | 0.772 | 0.638 | 1 | 0.873 | 0.836 | 0.632 | 0.582 | 0.941 | 0.822 | 0.86 |

| Cell Line | relative viability (Palbociclib + Foretinib; first compound 0.01 µM) | relative viability (Palbociclib + Foretinib; first compound 0.1 µM) | relative viability (Palbociclib + Foretinib; first compound 0.3162 µM) | relative viability (Palbociclib + Foretinib; first compound 1 µM) | relative viability (Palbociclib + Pemetrexed; first compound 0.01 µM) | relative viability (Palbociclib + Pemetrexed; first compound 0.1 µM) | relative viability (Palbociclib + Pemetrexed; first compound 0.3162 µM) | relative viability (Palbociclib + Pemetrexed; first compound 1 µM) | relative viability (Palbociclib; 0.01 µM) | relative viability (Palbociclib; 0.1 µM) | relative viability (Palbociclib; 0.3162 µM) | relative viability (Palbociclib; 0.5 µM, anchor plate) | relative viability (Palbociclib; 1 µM) | relative viability (Palbociclib + Foretinib; first compound 0.03162 µM) | relative viability (Palbociclib + Pemetrexed; first compound 0.03162 µM) | relative viability (Palbociclib; 0.03162 µM) |
| --- | --- | --- | --- | --- | --- | --- | --- | --- | --- | --- | --- | --- | --- | --- | --- | --- |
| NCI-H460 | 1.01 | 0.886 | 0.8 | 0.536 | 0.0576 | 0.0631 | 0.0663 | 0.057 | 0.974 | 0.912 | 0.864 | 0.199 | 0.532 | 0.969 | 0.0539 | 0.81 |
| SW 1573 | 0.867 | 0.862 | 0.742 | 0.785 | 0.773 | 0.646 | 0.681 | 0.461 | 0.994 | 0.8 | 0.723 | 0.419 | 0.617 | 1 | 0.729 | 0.789 |
| NCI-H520 | 0.837 | 0.522 | 0.551 | 0.373 | 0.636 | 0.554 | 0.331 | 0.267 | 0.915 | 0.596 | 0.549 | 0.237 | 0.36 | 0.563 | 0.573 | 0.677 |
| LU99A | 0.782 | 0.765 | 0.724 | 0.583 | 0.176 | 0.158 | 0.171 | 0.19 | 0.91 | 0.924 | 0.928 | 0.414 | 0.65 | 0.82 |  | 0.711 |
| RERF-LC-KJ | 0.868 | 0.88 | 0.861 | 0.898 | 0.437 | 0.432 | 0.486 | 0.469 | 1.02 | 0.968 | 1.02 | 1.09 | 1.02 | 0.761 | 0.45 | 0.871 |
| NCI-H596 | 0.996 | 0.836 | 0.821 | 0.953 | 0.514 | 0.514 | 0.52 | 0.497 | 0.894 | 0.9 | 0.876 |  | 1.04 |  | 0.617 | 0.775 |
| SK-LU-1 | 0.825 | 0.571 | 0.552 | 0.361 | 1.02 | 0.836 | 0.753 | 0.556 | 1.05 | 0.828 | 0.794 | 0.385 | 0.563 | 0.74 | 0.96 | 0.912 |
| H3255 | 0.879 | 0.693 | 0.641 | 0.57 | 0.602 | 0.576 | 0.488 | 0.397 | 1.04 | 0.823 | 0.904 | 0.316 | 0.519 | 0.898 | 0.59 | 0.922 |
| NCI-H2085 | 1.03 | 0.744 | 0.599 | 0.534 | 0.823 | 0.752 | 0.6 | 0.485 | 0.979 | 0.879 | 0.805 | 0.475 | 0.574 | 0.875 | 0.798 | 0.966 |
| NCI-H2009 | 1.2 | 0.998 | 0.728 | 0.495 | 1.04 | 0.913 | 0.72 | 0.408 | 0.991 | 0.781 | 0.693 | 0.237 | 0.35 | 1 | 0.925 | 0.905 |
| NCI-H2342 | 0.986 | 0.749 | 0.995 | 0.662 | 0.766 | 0.861 | 0.747 | 0.556 | 1.01 | 0.849 | 0.785 | 0.527 | 0.621 | 0.974 | 0.691 | 0.846 |
| A-427 | 0.944 | 0.993 | 0.729 | 0.607 | 0.96 | 0.779 | 0.633 | 0.497 | 0.941 | 0.755 | 0.727 | 0.529 | 0.534 | 1.01 | 0.879 | 0.775 |
| NCI-H647 | 1.21 | 1.13 | 1.07 | 0.964 | 0.167 | 0.2 | 0.179 | 0.188 | 1.06 | 0.865 | 0.82 | 0.415 | 0.597 | 1.17 | 0.171 | 0.781 |
| NCI-H838 | 1.03 | 0.71 | 0.823 | 0.515 | 0.354 | 0.242 | 0.29 | 0.18 | 1.06 | 0.761 | 0.816 | 0.232 | 0.353 | 0.955 | 0.234 | 0.833 |
| NCI-H2087 | 0.951 | 0.838 | 0.631 | 0.47 | 0.683 | 0.621 | 0.537 | 0.393 | 1.08 | 0.815 | 0.586 | 0.242 | 0.364 |  | 0.664 | 0.546 |
| CAL-12T | 1.01 | 0.901 | 0.791 | 0.674 | 1.14 | 0.924 | 0.672 | 0.637 | 1 | 0.75 | 0.651 | 0.446 | 0.611 | 0.898 | 1.1 | 0.851 |
| NCI-H1755 | 0.928 | 0.819 | 0.801 | 0.578 | 0.429 | 0.385 | 0.467 | 0.397 | 1.03 | 0.915 | 0.845 | 0.443 | 0.664 | 0.893 | 0.394 | 0.896 |
